Measurements from US6787653B2, “Preparation process of biphenylcarboxylic acid amide derivatives” (Kowa Co., Ltd., priority 2002, dated 2004).
Structures can show the parent of a compound that is named as a salt.

Test system: IgE antibody production by B cells
Assay: Evaluation of inhibitory activity against IgE antibody production
Assay type: cell-based
Details: B-cell; mouse (Balb/C) spleen B cells cultured with LPS and mouse IL-4; IgE in culture supernatant by ELISA
Experimental: After the spleen was enucleated from a mouse (Balb/C, male, aged 8 weeks) and shredded in 0.3 wt. % BSA/HBSS, single cells were obtained using a 200-mesh screen. The single cells were then hemolyzed by a 0.75 wt. % ammonium chloride·17 mmol/L Tris solution and a splenocyte suspension (1×10^7/mL) was prepared using RPMI 1640 medium/25 mmol/L HEPES/0.3 wt. % BSA. After the suspension was reacted with a rat anti-mouse Thy-1,2 monoclonal antibody (product of Cedarlane Co.) at 4° C. for 1 hour, the reaction mixture was centrifuged and the sediment cells were suspended again (1×10^7/mL, RPMI/HEPES/BSA). After the suspension-was reacted with a low-cytotoxic rabbit complement (product of Cedarlane Co.) at 37° C. for 1 hour, killed cells were removed by specific gravity centrifugation using lympholyte M (product of Cedarlane Co.) to obtain a B cell fraction as viable cells.
After culturing B cells ([…]) for one day together with LPS (E. coli 026:B6, product of DIFCO Co.) on a 96-well plate, mouse IL-4 (product of Genzyme Co.) was added. The mixture was cultured for further 7 days. Each test compound was added on the first day of the culture. After culturing, the amount of IgE antibody in a culture supernatant was assayed by ELISA, and the inhibitory activity of the test compound against production of an IgE antibody was calculated.

| IC50 [nM] | SMILES |
| --- | --- |
| 600 | COc1cc(-c2ccc(C(=O)N3CCN(CCCN4CCN(C(=O)c5ccc(-c6cc(OC)c(C(C)=O)c(OC)c6)cc5)CC4)CC3)cc2)cc(OC)c1C(C)=O [Example 5, 1,3-Bis[4-[4-(4-acetyl-3,5-dimethoxyphenyl)benzoyl]-1-piperazinyl]propane Dihydrochloride] |
| 300 | CCCOc1c(OC)cc(-c2ccc(C(=O)N3CCN(CCCN4CCN(C(=O)c5ccc(-c6cc(OC)c(OCCC)c(OC)c6)cc5)CC4)CC3)cc2)cc1OC [Example 6, 1,3-Bis[4-[4-(3,5-dimethoxy-4-propoxyphenyl)benzoyl]-1-piperazinyl]propane Dihydrochloride] |

Continued, compound first:

| SMILES | IC50 [nM] |
| --- | --- |
| COc1cc(-c2ccc(C(=O)N3CCN(CCCN4CCN(C(=O)c5ccc(-c6cc(OC)c(OC(C)C)c(OC)c6)cc5)CC4)CC3)cc2)cc(OC)c1OC(C)C [Example 2, 1,3-Bis [4-[4-(4-isopropoxy-3,5-dimethoxyphenyl)benzoyl]-1-piperazinyl]propane Dimethanesulfonate] | 200 |
| CCOc1c(OC)cc(-c2ccc(C(=O)N3CCN(CCCN4CCN(C(=O)c5ccc(-c6cc(OC)c(OCC)c(OC)c6)cc5)CC4)CC3)cc2)cc1OC [Example 4, 1,3-Bis[4-[4-(4-ethoxy-3,5-dimethoxyphenyl)benzoyl]-1-piperazinyl]propane Dimethanesulfonate] | 400 |
| COc1cc(-c2ccc(C(=O)N3CCN(CCCN4CCN(C(=O)c5ccc(-c6cc(OC)c(OC)c(OC)c6)cc5)CC4)CC3)cc2)cc(OC)c1OC [Example 1, 1,3-Bis[4-[4-(3,4,5-trimethoxyphenyl)benzoyl]-1-piperazinyl]propane Dihydrochloride] | 100 |
| COc1cc(-c2ccc(C(=O)N3CCN(CCCN4CCN(C(=O)c5ccc(-c6cc(OC)c(SC)c(OC)c6)cc5)CC4)CC3)cc2)cc(OC)c1SC [Example 3, 1,3-Bis[4-[4-(3,5-dimethoxy-4-methylthiophenyl)benzoyl]-1-piperazinyl]propane Dihydrochloride] | 80 |

Test system: not given
Assay: not given
Details: not given

| melting point | SMILES |
| --- | --- |
| 266 °C (dec.) | CCCOc1c(OC)cc(-c2ccc(C(=O)N3CCN(CCCN4CCN(C(=O)c5ccc(-c6cc(OC)c(OCCC)c(OC)c6)cc5)CC4)CC3)cc2)cc1OC (as salt: hydrochloride) [Example 6, 1,3-Bis[4-[4-(3,5-dimethoxy-4-propoxyphenyl)benzoyl]-1-piperazinyl]propane Dihydrochloride] |
| 240 °C (dec.) | COc1cc(-c2ccc(C(=O)N3CCN(CCCN4CCN(C(=O)c5ccc(-c6cc(OC)c(C(C)=O)c(OC)c6)cc5)CC4)CC3)cc2)cc(OC)c1C(C)=O (as salt: hydrochloride) [Example 5, 1,3-Bis[4-[4-(4-acetyl-3,5-dimethoxyphenyl)benzoyl]-1-piperazinyl]propane Dihydrochloride] |

The remaining lines, values behind:

| SMILES | melting point |
| --- | --- |
| CCOc1c(OC)cc(-c2ccc(C(=O)N3CCN(CCCN4CCN(C(=O)c5ccc(-c6cc(OC)c(OCC)c(OC)c6)cc5)CC4)CC3)cc2)cc1OC (as salt: methanesulfonate) [Example 4, 1,3-Bis[4-[4-(4-ethoxy-3,5-dimethoxyphenyl)benzoyl]-1-piperazinyl]propane Dimethanesulfonate] | 245 °C (dec.) |
| COc1cc(-c2ccc(C(=O)N3CCN(CCCN4CCN(C(=O)c5ccc(-c6cc(OC)c(OC(C)C)c(OC)c6)cc5)CC4)CC3)cc2)cc(OC)c1OC(C)C (as salt: methanesulfonate) [Example 2, 1,3-Bis [4-[4-(4-isopropoxy-3,5-dimethoxyphenyl)benzoyl]-1-piperazinyl]propane Dimethanesulfonate] | 235.5 °C (dec.) |
